Data from patent publication US10927107B2, “Phenyl [a]indole[2,3-g]quinolizine compounds, preparation method therefor, pharmaceutical composition, and applications thereof” (Shanghai Institute of Materia Medica, Chinese Academy of …, priority 2016, dated 2021).
Where two headings read alike, the source gives them in different places.

Tests used:
[1] = system: HepG2 cells; experiment: In vitro lipid-lowering activity: DiI-LDL uptake in HepG2 cells; assay type: cell-based; settings: Homo sapiens, test compound 5 uM, 24 h, DiI-LDL 20 ug/ml, 3 h, FLU of sample group/FLU of blank group x100%, read-out: LDL uptake rate
Experimental: HepG2 cells were inoculated in 24-well plates, cultured in DMEM containing 10% FBS for 24 h or 48 h, and then transferred to DMEM containing 2% defatted serum and cultivated for 24 h. The old culture solution was discarded and replaced with new 2% defatted serum DMEM, and a test compound (the working concentration of which is 5 uM, triplicate for each sample) was added and incubated for 24 h. The old culture solution was abandoned and DMEM containing DiI-LDL (20 ug/ml) was added (300 ul/per 24 wells), incubated for 3 h. DMEM containing DiI-LDL was discarded, and cells were rinsed twice with PBS containing 0.4% BSA, and 3 times with PBS to remove excess DiI-LDL. Isopropanol was added (500 ul/per well of a 24-well plate), and was kept in darkness. After shaken for 20 minutes, 200 ul of supernatant was sucked to a black fluorescent plate, and fluorescence intensity (FLU) was detected at excitation light 520 nm and emission light 578 nm. The experimental results were calculated: LDL uptake rate=(FLU value of sample group to be tested/FLU value of blank group)×100%.

[2] = system: Syrian golden hamsters (high-fat diet, hyperlipidemia model); experiment: In vivo lipid-lowering activity in high-fat diet golden hamsters; parameters: species or system Syrian golden hamster; settings: for CHOL / HDL-C / LDL-C / TG: high-fat diet, serum; for contents of cholesterol (CHOL), triglyceride (TG) and low density lipoprotein (LDL-C) in the blood: hyperlipidemia model
Experimental: After adaptively feeding Syrian golden hamsters (male, 80-100 g) for a week, all hamsters were fed with high-fat diet. Two weeks later, blood was collected from the orbital venous plexus, serum was separated, and levels of total cholesterol (TC), triglyceride (TG), high-density lipoprotein (HDL-C) and low-density lipoprotein (LDL-C) in serum were measured. They were evenly grouped according to blood lipid levels into […]: model control group, A1 intragastric administration group, A1 intraperitoneal administration group, A5 intragastric administration group, A5 intraperitoneal administration group, A55 intragastric administration group, A55 intraperitoneal administration group, B5 intragastric administration group, B5 intraperitoneal administration group, and the animals in each group were continued to be administered with high fat diet. […] […] Blood lipid levels and body weights were measured every 10 days. After three weeks, the animals were sacrificed and the liver was stored in a −80° C. refrigerator.

[3] = Rat pharmacokinetics; assay type: in vivo; parameters: AUC(0-t) / AUC(0-inf): concentration or dose not given beside the values; settings: plasma; for AUC(0-inf): read-out: AUCINF—obs; for clearance: read-out: CL—obs (converted); for MRT inf: read-out: MRTINF—obs; for Vd: read-out: Vss—obs
Experimental: (§1) A1 10 μL of a plasma sample was taken in a centrifuge tube and 100 μL of methanol:acetonitrile (1:1, v/v) was added, vortexed for 1 min, centrifugated (14000 rpm) for 5 min, and 50 μL supernatant was taken, mixed with equal volume of water, and analysised after vortex mixing. The linear range of A1 is: 0.1-300 ng/mL for oral administration and 1-3000 ng/mL for intravenous injection.
as §1, with “A55” for “A1”, “0.3-3000” for “1-3000”

[4] = target: T1, α1A-adrenergic receptor (α1A-AR) (Homo sapiens, UniProt P35348); experiment: Antagonistic activity on α1A-AR: calcium fluorescence in HEK293 cells stimulated with phenylephrine; assay type: cell-based
T1 construct: expressed in transfected cells; host or cells: HEK293
T1 sequence (P35348 1-466): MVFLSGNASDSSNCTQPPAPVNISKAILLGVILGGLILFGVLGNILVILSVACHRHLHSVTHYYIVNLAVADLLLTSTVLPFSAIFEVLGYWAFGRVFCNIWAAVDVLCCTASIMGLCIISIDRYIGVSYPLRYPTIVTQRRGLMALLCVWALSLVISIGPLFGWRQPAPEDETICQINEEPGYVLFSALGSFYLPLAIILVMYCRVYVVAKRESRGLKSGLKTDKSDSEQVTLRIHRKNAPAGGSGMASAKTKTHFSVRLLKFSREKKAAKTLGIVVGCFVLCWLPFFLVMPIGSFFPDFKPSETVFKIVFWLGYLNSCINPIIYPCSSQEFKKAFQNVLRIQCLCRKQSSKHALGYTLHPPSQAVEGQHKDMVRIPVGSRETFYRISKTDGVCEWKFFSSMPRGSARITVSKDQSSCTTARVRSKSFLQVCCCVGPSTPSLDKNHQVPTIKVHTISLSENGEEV
Experimental: HEK293 cells stably expressing α1A-adrenergic receptor (α1A-AR) and G protein […] were seeded in 96-well plates. After 24 hours of culture, the medium was removed, and 40 μL of Hank's balanced salt solution (HBSS: containing 5.4 mM KCl, 0.3 mM Na2HPO4, 0.4 mM KH2PO4, 4.2 mM NaHCO3, 1.3 mM CaCl2, 0.5 mM MgCl2, 0.6 mM MgSO4, 137 mM NaCl, 5.6 mM D-glucose and 250 μM sulfinpyridone, pH 7.4) containing 2 μM of MFluo-4AM was added to each well, and incubated for 45 minutes in an incubator. The dye was aspirated and 50 μL of HBSS containing a test compound or 1% DMSO (negative control) was added and incubated for 10 minutes at room temperature, and then read with Flex Station 3 microplate reader. At the specified time point, 25 μL of agonist phenylephrine (final concentration 30 nM) will be automatically added by the detector into the reaction system, and simultaneously stimulated with 485 nm light, and the change in intensity of fluorescence caused by the change in the intracellular calcium ion concentration was detected at 525 nm. […] The response rate of different doses of the same drug was analyzed by GraphPad Prism software to obtain a dose-response curve and the IC50 value was measured. Each experiment was performed in […].

[5] = abdominal (intraperitoneal) 30 mg/kg once a day for three weeks
[6] = oral (intragastric) 30 mg/kg once a day for three weeks
[7] = HEK293 cells expressing α1A-AR, agonist phenylephrine 30 nM, calcium fluorescence, read-out: α1A-AR/IC50

## COc1ccc2c(c1)c1c(n2CO)CN2CCc3cc(OC)c(OCc4ccccc4)cc3C2C1 (centres unmarked) [Example A1, (2-(Benzyloxy)-3,12-dimethoxy-5,6,14,14a-tetrahydroindolo[3′,2′:4,5]pyridine[2,1-a]isoquinoline-9(8H)-yl)methanol]
[1]
  activity at 5 µM: 148%
[2]; [5]
  CHOL: 9.75 mmol/L
  HDL-C: 1.63 mmol/L
  LDL-C: 5.25 mmol/L
  TG: 8.16 mmol/L
[2]; [6]
  CHOL: 27.93 mmol/L
  HDL-C: 2.56 mmol/L
  LDL-C: 13.64 mmol/L
  TG: 28.61 mmol/L
[2]
  contents of cholesterol (CHOL), triglyceride (TG) and low density lipoprotein (LDL-C) in the blood: significantly reduced
[3]; iv
  AUC(0-t): 1910 ng·h/mL
  Cmax: 1110 ng/mL
  Tmax: 0.083 h
  half-life: 2.58 h
  AUC(0-inf): 1980 ng·h/mL
  clearance: 84.2 mL/min/kg
  MRT inf: 3.3 h
  Vd: 16.6 L/kg
[3]; po
  AUC(0-t): 776 ng·h/mL
  Cmax: 159 ng/mL
  Tmax: 6 h
  bioavailability: 20.3%

## COc1ccc2c(c1)c1c(n2CO)CN2CCc3cc(OC)c(OCc4ccc(F)cc4)cc3C2C1 (centres unmarked) [Example A5, (2-((4-fluorobenzyl)oxy)-3,12-dimethoxy-5,6,14,14a-tetrahydroindolo[3′,2′:4,5]pyridine[2,1-a]isoquinoline-9(8H)-yl)methanol]
[1]
  activity at 5 µM: 156%
[2]; [5]
  CHOL: 11.36 mmol/L
  HDL-C: 1.77 mmol/L
  LDL-C: 6.16 mmol/L
  TG: 13.26 mmol/L
[2]; [6]
  CHOL: 15.32 mmol/L
  HDL-C: 4.01 mmol/L
  LDL-C: 7.44 mmol/L
  TG: 15.46 mmol/L
[2]
  contents of cholesterol (CHOL), triglyceride (TG) and low density lipoprotein (LDL-C) in the blood: significantly reduced

## COc1ccc2c(c1)c1c(n2CO)CN2CCc3cc(OCc4ccccc4)c(OC)cc3C2C1 (centres unmarked) [Example A55, (3-(Benzyloxy)-2,12-dimethoxy-5,6,14,14a-tetrahydroindolo[3′,2′:4,5]pyridine[2,1-a]isoquinoline-9(8H)-yl)methanol]
[1]
  activity at 5 µM: 194%
[2]; [5]
  CHOL: 17.86 mmol/L
  HDL-C: 2.98 mmol/L
  LDL-C: 9.39 mmol/L
  TG: 19.77 mmol/L
[2]; [6]
  CHOL: 11.81 mmol/L
  HDL-C: 3.88 mmol/L
  LDL-C: 5.56 mmol/L
  TG: 6.74 mmol/L
[2]
  contents of cholesterol (CHOL), triglyceride (TG) and low density lipoprotein (LDL-C) in the blood: significantly reduced
[3]; iv
  AUC(0-t): 2720 ng·h/mL
  Cmax: 2740 ng/mL
  Tmax: 0.083 h
  half-life: 1.88 h
  AUC(0-inf): 2730 ng·h/mL
  clearance: 61 mL/min/kg
  MRT inf: 1.7 h
  Vd: 6.41 L/kg
[3]; po
  AUC(0-t): 334 ng·h/mL
  Cmax: 62 ng/mL
  Tmax: 4 h
  bioavailability: 6.2%
  half-life: 0.71 h
  AUC(0-inf): 335 ng·h/mL
  MRT inf: 4.8 h

## COc1ccc2c(c1)c1c(n2CO)CN2CCc3cc(OCc4cccc(F)c4)c(OC)cc3C2C1 (centres unmarked) [Example A61, (3-((3-fluorobenzyl)oxy)-2,12-dimethoxy-5,6,14,14a-tetrahydroindolo[3′,2′:4,5]pyridine[2,1-a]isoquinoline-9(8H)-yl)methanol]
[4]; [7]
  IC50: 4.53 µM
[1]
  activity at 5 µM: 165%
[2]; Dose 30, oral
  TC: 37.11 ± 11.19 mmol/L
[2]; Dose 100, oral
  TC: 22.57 ± 6.37 mmol/L

## COc1ccc2c(c1)c1c(n2CO)CN2CCc3cc(OCc4ccccc4F)c(OC)cc3C2C1 (centres unmarked) [Example A63, (3-((2-fluorobenzyl)oxy)-2,12-dimethoxy-5,6,14,14a-tetrahydroindolo[3′,2′:4,5]pyridine[2,1-a]isoquinoline-9(8H)-yl)methanol]
[4]; [7]
  IC50: 57.7 µM
[1]
  activity at 5 µM: 138%

## COc1ccc2c(c1)c1c(n2CO)CN2CCc3cc(OCc4ccc(C)cc4)c(OC)cc3C2C1 (centres unmarked) [Example A69, (2,12-Dimethoxy-3-((4-methylbenzyl)oxy)-5,6,14,14a-tetrahydroindolo[3′,2′:4,5]pyridine[2,1-a]isoquinoline-9(8H)-yl)methanol]
[4]; [7]
  IC50: > 100 µM
[1]
  activity at 5 µM: 140%

## COc1ccc2[nH]c3c(c2c1)CC1c2cc(OC)c(OCc4ccccc4)cc2CCN1C3c1ccc(F)cc1 (centres unmarked) [Example B55, 3-(benzyloxy)-8-(4-fluorophenyl)-2,12-dimethoxy-5,6,8,9,14,14a-hexahydroindole[3′,2′:4,5]pyridine[2,1-a]isoquinoline]
[4]; [7]
  IC50: > 100 µM
[1]
  activity at 5 µM: 125%

## COc1ccc2[nH]c3c(c2c1)CC1c2cc(OCc4ccccc4F)c(OC)cc2CCN1C3 (centres unmarked) [Example C9, 2-((2-Fluorobenzyl)oxo)-3,12-dimethoxy-5,6,8,9,14,14a-hexahydroindole[3′,2′:4,5]pyridine[2,1-a]isoquinoline]
[2]; Dose 30, oral
  TC: 36.87 ± 23.13 mmol/L

## COc1ccc2[nH]c3c(c2c1)CC1c2cc(OC)c(OCc4ccc(F)cc4)cc2CCN1C3 (centres unmarked) [Example C49, 3-((4-Fluorobenzyl)oxo)-2,12-dimethoxy-5,6,8,9,14,14a-hexahydroindole[3′,2′:4,5]pyridine[2,1-a]isoquinoline]
[4]; [7]
  IC50: 6.58 µM
[4]; statement in text on Table 2, read-out: antagonistic activity to α1A-AR
  IC50: < 10 µM
[1]
  activity at 5 µM: 194%

## COc1ccc2[nH]c3c(c2c1)CC1c2cc(OC)c(OCc4ccccc4F)cc2CCN1C3 (centres unmarked) [Example C53, 3-((2-Fluorobenzyl)oxo)-2,12-dimethoxy-5,6,8,9,14,14a-hexahydroindole[3′,2′:4,5]pyridine[2,1-a]isoquinoline]
[4]; [7]
  IC50: 17.5 µM
[1]
  activity at 5 µM: 112%

## COc1ccc2[nH]c3c(c2c1)CC1c2cc(OC)c(OCc4ccc(C)cc4)cc2CCN1C3 (centres unmarked) [Example C59]
[4]; [7]
  IC50: > 100 µM
[1]
  activity at 5 µM: 147%

## COc1cc2c(cc1OCc1cccc(C)c1)CCN1Cc3[nH]c4ccccc4c3CC21 (centres unmarked) [Example C107, 2-methoxy-3-((3-methylbenzyl)oxo)-5,6,8,9,14,14a-hexahydroindolo[3′,2′:4,5]pyridine[2,1-a]isoquinoline]
[1]
  activity at 5 µM: 69.5%

## CCOc1ccccc1OCCN[C@H](C)Cc1ccc(OC)c(S(N)(=O)=O)c1 [Positive control, Tamsulosin, reference compound]
[1]
  activity at 5 µM: 138%
